Target: Siderocalin (Scn; a.k.a. Lcn2, Ngal, 24p3) (Homo sapiens, UniProt P80188)
Test: intrinsic fluorescence quenching titration
Type: binding
Settings: pH 7.4, TBS, 5% DMSO, 32 μg/mL ubiquitin, 100 nM protein; ferric complex

Chain of Siderocalin (Scn; a.k.a. Lcn2, Ngal, 24p3) (P80188 21-198): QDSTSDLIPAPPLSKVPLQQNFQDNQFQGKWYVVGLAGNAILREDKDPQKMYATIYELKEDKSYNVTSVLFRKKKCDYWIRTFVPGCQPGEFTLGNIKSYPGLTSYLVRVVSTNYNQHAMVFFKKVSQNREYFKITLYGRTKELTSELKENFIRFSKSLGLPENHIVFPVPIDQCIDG

Substance: Fe^IIICMB-6 [n = 6]
- Kd (μM): 0.654 ± 2.2×10^−2 μM

Substance: Fe^IIICMB (n = 4)
- Kd (μM): 2.36 ± 9.0×10^−3 μM

Substance: Fe^IIICMB (n = 3)
- Kd: > 9 µM

Substance: Fe^IIICMB-5 [n = 5]
- Kd (μM): 1.10 ± 2.6×10^−2 μM

Substance: Fe^IIICMB-7 [n = 7]
- Kd (μM): 0.128 ± 1.0×10^−3 μM

Reference: publication PMC3241878 (ACS chemical biology, 2011)
